Reference: PMC5025054 (PLoS ONE, 2016)
Read-outs that look alike come from different tables or passages of the source.

Columns and labels:
[1] = Weight progression of treated rats; assay type: in vivo, Rattus norvegicus; conditions: alone or co-administered, VP2.51 2.5 mg/Kg i.p. 15 days, L-BMAA 300 mg/kg i.p. 5 days, 100 days
Text: After this time the animals were sacrificed.

male rats, Wistar strain = assay: Neurological evaluation in L-BMAA motor neuron disease model
Description: Assays were carried out using male rats of Rattus norvegicus, albino variety, Wistar strain, that were supplied by Harlan Interfauna Ibérica S.A. (Barcelona, Spain). Animals were kept at constant temperature (21 ± 1°C) on a reversed light/dark cycle with diets and water ad libitum (A04 commercial rodent diet, Panlab, Barcelona, Spain). […] Animal’s health was monitored by weight control. […] Animals were sacrificed at the established time point under general anaesthesia with isoflurane (ISOFLO®, Abbott Laboratories, Abbott Park, IL, USA).
At weaning time (postnatal day 21) animals, with a weight between 45 and 55 g, were intraperitoneally (i.p.) injected with 300 mg/kg of L-BMAA (L-BMAA hydrochloride, Sigma-Aldrich, Ref. B107), during 5 consecutive days. The injected solution was composed by 50 mg of L-BMAA dissolved in 500 μl of PBS (0.1 mg / μl).
VP2.51 was dissolved in a stock solution of DMSO (dimethyl sulfoxide, Sigma) at 100 mg/mL. This stock was used to prepare a final solution of 1 mg/mL in PBS with 5% DMSO and 5% Tween® 80 (Sigma). Rats were injected i.p. 2.5 mg/Kg beginning at two different times: on the first day after treatment with L-BMAA (PT1) and on day post-treatment 30 (PT30). Injection treatment was performed for 15 consecutive days.
In summary, 6 different groups of 12 animals each were used: Control (only PBS injected), L-BMAA, L-BMAA+VP2.51 PT1, VP2.51 PT1, L-BMAA+VP2.51 PT30, VP2.51 PT30. Weight monitoring was performed every day during 100 days. After this time the animals were sacrificed.
The neurological tests were carried out blindly as described by de Munck et al [13], once a week during 100 days. Briefly, the neurological assess was carried out with three different tests: ambulation, tail suspension test and strength test. […] In the tail suspension test, the rat was suspended by the tail at 10 cm over the surface. The ability to keep the hind limbs in the normal neutral position adopted by rodents in such situation, i.e., describing a “T” was evaluated, together with the stiffness of the limbs and the inter-limb coordination during kicking. The strength test and was carried out setting down the rats on a flat surface, both forelegs and hind limbs on it, while pulling the tail softly to the opposite direction of animal usual move course. The ability the rats had to drag and offer resistance, assessing their faculty to kept hind limbs under the body without spreading their legs away from it was observed. The neurological evaluation was established in a scale comprised between 0 and 10, where 0 is the evaluation given to animals which are not symptomatic, control animals, and 10 belongs to a state of total functional loss of the hindlimbs and postural control.

LC3-II and P-mTOR = assay: Analysis of LC3-II and P-mTOR by western-blot (autophagy) in motor cortex and lumbar spinal cord; assay type: in vivo, Rattus norvegicus
Description: The entire brain and the lumbar spinal cord were rapidly removed and stored at -80°C.
To analyse LC3-II and P-mTOR by western-blot, 100 mg of motor cortex and lumbar spinal cord of each animal were homogenized in a RIPA buffer: 50 mM Tris–HCl pH 7.4, 50 mM NaCl, Nonidet P-40 1%, 1 mM EDTA, 1 mM PMSF, 1 mg/mL aprotinin, […] leupeptin, 1 mg/mL pepstatin, at a rate of […] of tissue. The mixture was sonicated for 2 min with 2 s pulses of sonication and 2 s off at amplitude of 40%. Once the samples were homogenized, the evaluation and protein electrophoresis was performed. The protocol was adapted from Zhang et al as described in Muñoz-Sáez et al.
Before the electrophoresis, the protein concentrations of all samples were determined by Bradford assay (Sigma–Aldrich Inc., St. Louis, MO, USA; Bradford, 1976).
Electrophoresis for protein separation was performed by SDS-PAGE. In all cases, the concentrating gel contained 6% polyacrylamide. Regarding LC3-II, the percentage of polyacrylamide was 12% for the separating gel and for P-mTOR an 8% polyacrylamide separating gel was used. Subsequently, proteins from the gels were transferred to a nitrocellulose membrane (AmershamTM HybondTM–ECL) in a wet system at 10 V o/n and 4°C. Membranes were incubated with following primary antibodies: a rabbit polyclonal anti-tubulin β-III (Novus Biologicals, Littleton, CO, USA), a rabbit polyclonal anti-LC3-II (Novus Biologicals, Littleton, CO, USA) and rabbit polyclonal anti-mTOR (Phospho-Ser2448) (Novus Biologicals, Littleton, CO, USA). As a secondary antibody, we applied Donkey anti-rabbit IgG-Fc Horseradish Peroxidase (HRP) (Bethyl Laboratories, Montgomery, TX, USA). All the antibodies were used according to the manufacturers’ specifications. Proteins were detected by enhanced chemiluminescence. Digital images were acquired using a Fujifilm Intelligent Darkbox II (Fuji Systems USA, Stamford, CT) and the image processing for quantification was conducted with free image processing software Image J.

[2] = In vitro parallel artificial membrane permeability assay (PAMPA-BBB); assay type: in vitro ADME, porcine; conditions: for Pe: PBS:DMSO (95:5), 4 h at 25°C, mean ± SD of 3 independent experiments
Description: Prediction of the brain penetration was evaluated using a parallel artificial membrane permeability assay (PAMPA). Ten commercial drugs, phosphate buffer saline solution at pH 7.4 (PBS), DMSO and dodecane were purchased from Sigma, Across organics, Aldrich and Fluka. […] Filter PDVF membrane units (diameter 30 mm, pore size 0.45 μm) from Symta were used to filter the samples. A 96-well plate UV reader (Thermoscientific, Multiskan spectrum) was used for the UV measurements. Test compounds were dissolved in DMSO (250 μL). 25 μL of this compound stock solution was taken and 225 μL of DMSO and 4750 μL of PBS pH 7.4 buffer were added to reach 5% of DMSO concentration in the experiment. These solutions were filtered. The acceptor 96-well microplate was filled with 180 μL of PBS:DMSO (95:5). The donor 96-well plate was coated with 4 μL of porcine brain lipid in dodecane (20 mg mL^-1) and after 5 minutes, 180 μL of each compound solution was added. […] Then the donor plate was carefully put on the acceptor plate to form a “sandwich”, which was left undisturbed for 4 h at 25°C. During this time the compounds diffused from the donor plate through the brain lipid membrane into the acceptor plate. After incubation, the donor plate was removed. The concentration of VP2.51 and commercial drugs in the acceptor and the donor wells was determined by UV plate reader. Every sample was analyzed at three to five wavelengths, in 3 wells and in three independent runs. […] Validation was made comparing the reported permeabilities values of commercial drugs with the experimental data obtained employing this methodology.
Finally, the ability to cross the blood-brain barrier (BBB) was determined. […] VP2.51 permeability through the BBB was evaluated by a parallel artificial membrane permeability assay (PAMPA) using porcine brain membrane lipid and ten commercial drugs following the methodology described by Di et al.

SH-SY5Y cells = assay: Neuroprotection in cellular L-BMAA model (MTT cell viability); assay type: cell-based; conditions: L-BMAA 10 mM, inhibitors 10 μM, 24 h
Description: SH-SY5Y cells on a 96 well plate ere incubated with L-BMAA (10 mM) with or without inhibitors (10 μM). A control experiment was set at the same time without L-BMAA or inhibitors. After 24 h a MTT was performed to determine cell viability using known procedures in the literature. Experiment was performed in triplicate.
Mechanistically and structurally diverse GSK-3 inhibitors were tested in a cellular model of L-BMAA to study whether GSK-3 inhibition was implicated in neuroprotection at L-BMAA damage, using a forward chemical genetic approach. […] Cells were incubated with L-BMAA together with or without inhibitors for 24 h and cell viability was determined.

Human recombinant GSK-3β [3] = biological target: T1, Human recombinant GSK-3β (Homo sapiens, UniProt P49841); conditions: cited from earlier work
T1 construct: purchased Millipore (Millipore Iberica S.A.U.)

Human recombinant GSK-3β [4] = biological target: T1, Human recombinant GSK-3β; assay: Inhibition of GSK-3 (Kinase-Glo luminescent assay; ADP-Glo for kinetics); assay type: biochemical
Description: Human recombinant GSK-3β was purchased from Millipore (Millipore Iberica S.A.U.). The prephosphorylated polypeptide substrate was purchased from Millipore (Millipore Iberica S.A.U.). Kinase-Glo Luminescent Kinase Assay was obtained from Promega (Promega Biotech Ibérica, SL). ATP and all other reagents were from Sigma-Aldrich (St. Louis, MO). Assay buffer contained 50 mM HEPES (pH 7.5), 1 mM EDTA, 1 mM EGTA, and 15 mM magnesium acetate.
The method of Baki et al was followed to analyse the inhibition of GSK-3β. Kinase-Glo assays were performed in assay buffer using black 96-well plates. […] After 30 min incubation at 30°C the enzymatic reaction was stopped with 40 μl of Kinase-Glo reagent. Glo-type luminescence was recorded after 10 min using a FLUOstar Optima (BMG Labtechnologies GmbH, Offenburg, Germany) multimode reader. The activity is proportional to the difference of the total and consumed ATP. The inhibitory activities were calculated on the basis of maximal activities measured in the absence of inhibitor. […] To investigate the inhibitory mechanism of VP2.51 on GSK-3β, a kinetic study varying both ATP (from 1 to 50 μM) and VP.251 (from 0.5 to 1 μM) concentrations were performed using the ADP-Glo Kinase Assay.
To study the type of enzymatic inhibition for the compounds, measurements after several times of incubation of the enzyme with the inhibitor VP2.51 were performed.

[5] = system: panel of fifty different human kinases; conditions: fixed concentration 10 μM
Description: Fig 1 Biological activity of VP2.51 on GSK-3 and other protein kinases. […] B) Kinetic GSK-3 inhibition data determined for VP2.51. ATP concentrations in the reaction mixture varied from 1 to 50 μM. […] Each point is the mean of two different experiments, each one analyzed in duplicate. C) Kinase profiling of VP2.51 on human recombinant kinases. The percentage (%) of kinase activity after the treatment with a fixed concentration (10 μM) of the compound is shown.

multiple sclerosis model = system: multiple sclerosis model; parameters: method as in PMID 23606540; conditions: cited from earlier work
casein kinase-1δ (CK-1δ) = casein kinase-1δ (CK-1δ) (Homo sapiens, UniProt P48730); assay: CK-1δ inhibition following a described protocol; assay type: biochemical
cytochromes P450 family = system: cytochromes P450 family; parameters: method as in earlier work; conditions: cited from earlier work

T1 sequence (P49841 whole entry): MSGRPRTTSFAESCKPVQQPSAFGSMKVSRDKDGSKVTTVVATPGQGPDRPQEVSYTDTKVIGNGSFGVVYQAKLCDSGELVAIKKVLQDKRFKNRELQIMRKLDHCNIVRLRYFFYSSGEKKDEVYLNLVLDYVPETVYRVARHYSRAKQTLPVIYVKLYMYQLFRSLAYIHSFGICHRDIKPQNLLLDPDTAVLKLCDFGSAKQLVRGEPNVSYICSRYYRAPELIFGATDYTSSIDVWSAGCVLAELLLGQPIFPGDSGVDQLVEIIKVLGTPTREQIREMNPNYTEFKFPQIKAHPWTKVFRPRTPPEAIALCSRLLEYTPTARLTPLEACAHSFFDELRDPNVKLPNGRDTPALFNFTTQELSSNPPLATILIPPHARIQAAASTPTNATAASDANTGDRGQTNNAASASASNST
casein kinase-1δ (CK-1δ), sequence (P48730 whole entry): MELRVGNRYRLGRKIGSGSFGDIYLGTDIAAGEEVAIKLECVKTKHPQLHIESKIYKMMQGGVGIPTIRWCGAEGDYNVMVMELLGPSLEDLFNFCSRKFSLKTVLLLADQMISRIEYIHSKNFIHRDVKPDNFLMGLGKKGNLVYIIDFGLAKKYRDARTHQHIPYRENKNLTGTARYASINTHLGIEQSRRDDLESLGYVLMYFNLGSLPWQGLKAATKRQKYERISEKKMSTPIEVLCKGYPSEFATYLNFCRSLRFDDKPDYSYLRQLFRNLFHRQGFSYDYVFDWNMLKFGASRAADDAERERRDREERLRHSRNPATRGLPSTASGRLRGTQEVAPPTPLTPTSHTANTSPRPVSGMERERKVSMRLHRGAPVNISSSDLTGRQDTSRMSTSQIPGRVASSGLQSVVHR

For `CNC[C@H](N)C(=O)O` [L-BMAA, β-N-methylamino-L-alanine, reference compound], the “Effect on weight progression / physical development” value [1] was “do not affect physical development”, the “neurological evaluation score (scale 0-10)” value (male rats, Wistar strain; rats treated with L-BMAA only, 300 mg/kg i.p. 5 consecutive days) was 7 points and the “P-mTOR levels in lumbar spinal cord vs control animals” value (LC3-II and P-mTOR; L-BMAA treated rats, t = 3.257, p = 0.031) was “significantly higher”. The “P-mTOR levels in motor cortex vs control animals” value (LC3-II and P-mTOR; L-BMAA treated rats, t = 5.889, p = 0.0042) was “significantly higher”, the “LC3-II levels in motor cortex vs control animals” value (LC3-II and P-mTOR; L-BMAA treated rats, t = 5.969, p = 0.027) was “significantly higher” and the “LC3-II levels in lumbar spinal cord vs control animals” value (LC3-II and P-mTOR; L-BMAA treated rats, t = 46.85, p = 0.0005) was “significantly higher”.

In the case of `CN1C(C(=O)Nc2ccccn2)=C(O)c2ccccc2S1(=O)=O` [Piroxicam, reference compound], the Pe ([2]; PAMPA-BBB) is reported as 1.7 ± 0.3 10^-6 cm s^-1.

In the case of `c1ccc(-c2n/c(=N/CCN3CCOCC3)sn2-c2ccccc2)cc1` [ITDZ 55], the “Cell viability, protection from L-BMAA damage” value (“Cell viability, protection” below) (SH-SY5Y cells) is listed as “protect cells from L-BMAA damage” and the “Kind of GSK-3 inhibition” value (Human recombinant GSK-3β [3]) is listed as “substrate competitive inhibitor”.

For `CCCCCCCCCCCC(=O)NNC(=O)c1c(O)c2ccccc2n(CC)c1=O` [VP0.7], the “Cell viability, protection” value (SH-SY5Y cells) is listed as “protect cells from L-BMAA damage” and the “Kind of GSK-3 inhibition” value (Human recombinant GSK-3β [3]; does not compete with ATP nor substrate) is listed as “allosteric inhibitor”.

In the case of `CC(=O)C1=C(c2cn(C)c3ccccc23)C(=O)NC1=O` [INH-38], the “Cell viability, protection” value (SH-SY5Y cells) is listed as “protect cells from L-BMAA damage” and the “Kind of GSK-3 inhibition” value (Human recombinant GSK-3β [3]) is listed as “ATP-competitive inhibitors”.

For `COc1ccc(CNC(=O)Nc2nc(C)c(C(C)=O)s2)cc1` [VP2.51, 1-(5-Acetyl-4-methyl-1,3-thiazol-2-yl)-3-(4-methoxybenzyl)urea], the “Cell viability, protection” value (SH-SY5Y cells) was “protect cells from L-BMAA damage”, the “Effect on weight progression / physical development” value [1] was “do not affect physical development” and the BBB prediction ([2]; PAMPA-BBB) was “CNS + (CNS + when they present a permeability > 4.15 x 10^−6 cm s^-1)”. The Pe ([2]; PAMPA-BBB) was 7.6 ± 0.4 10^-6 cm s^-1, the Papp at 4 h ([2]; pig, pH 7.4, PAMPA, porcine brain membrane lipid, read-out: effective permeability) was 7.6 ± 0.4 ×10⁻⁶ cm/s and the “Inhibitory mechanism (kinetic experiments)” value (Human recombinant GSK-3β [4]; ATP 1 to 50 μM, GS-2 12.5 μM, ADP-Glo) was “competes in vitro with ATP”. For the same compound, the “Type of enzymatic inhibition (time dependent experiments)” value (Human recombinant GSK-3β [4]; VP2.51 at 1 and 2 μM, several times of incubation with enzyme) was “reversible inhibition”, the IC50 (Human recombinant GSK-3β [4]; human recombinant enzyme, 1 μM ATP, 30 min, 30°C, read-out: GSK-3 inhibitory activity in vitro IC50) was 0.62 ± 0.15 µM and the “Evolution of neurological evaluation vs L-BMAA only group” value (male rats, Wistar strain; L-BMAA + VP2.51 PT1 (2.5 mg/Kg i.p. 15 days from day 1 after L-BMAA), F = 89.34, p <0.0001) was “markedly improved”. For the same compound, the “Evolution of neurological evaluation vs L-BMAA only group” value (male rats, Wistar strain; L-BMAA + VP2.51 PT30 (2.5 mg/Kg i.p. 15 days from day 30 post-treatment)) was “did not show significant differences”, the “neurological evaluation score (scale 0-10)” value (male rats, Wistar strain; rats treated exclusively with VP2.51 (PT1 and PT30), 2.5 mg/Kg i.p. 15 days) was “zero” and the “Neurological pathologies or observable toxicities” value (male rats, Wistar strain; rats, VP2.51 2.5 mg/Kg i.p. 15 days) was “does not promote either neurological pathologies or observable toxicities”. The Kinase selectivity profile [5] was “targeting only both isoforms of GSK-3, α and β, and with less potency, casein kinase-1δ (CK-1δ)”, the “P-mTOR level in lumbar spinal cord vs L-BMAA treated animals” value (LC3-II and P-mTOR; L-BMAA+VP2.51 at PT1) was “lower non-significant” and the “LC3-II levels in motor cortex vs L-BMAA treated animals” value (LC3-II and P-mTOR; L-BMAA+VP2.51 at PT1, t = 3.547, p <0.05) was “significantly lower”. For the same compound, the “LC3-II levels in lumbar spinal cord vs L-BMAA treated animals” value (LC3-II and P-mTOR; L-BMAA+VP2.51 at PT1, t = 5.083, p <0.01) was “lower”, the “P-mTOR levels in motor cortex vs L-BMAA treated animals” value (LC3-II and P-mTOR; L-BMAA+VP2.51 at PT1, t = 7.223, p <0.001) was “significantly lower” and the “Efficacy in multiple sclerosis model” value (multiple sclerosis model) was “effective”. For the same compound, the IC50 (casein kinase-1δ (CK-1δ)) was 7.28 ± 0.87 µM, the “CK-1δ IC50 relative to GSK-3 IC50” value (casein kinase-1δ (CK-1δ); fold over GSK-3 inhibition) was “tenfold” and the “Inhibition of cytochromes P450 family” value (cytochromes P450 family) was “weak or partial inhibitor”.

For `CN(C)CCCN1c2ccccc2Sc2ccccc21` [Promazine, reference compound], the Pe ([2]; PAMPA-BBB) was 8.9 ± 1.0 10^-6 cm s^-1.
